Several values for one entry are separate records, joined by “and”; a condition that tells them apart may be missing. Equal values may be shown once. Each block holds one molecule with its values, some of them ahead of it.
Tests used:
mosquitoes [1] = conditions: under laboratory conditions; cited from earlier work
mosquitoes [2] = conditions: Hill et al. 1979; cited from earlier work
Aedes aegypti = conditions: 0.5 mg/cm^2 on the skin of man; cited from earlier work
Aedes aegypti mosquitoes [3] = conditions: 0.31 mg/cm^2; cited from earlier work
Aedes aegypti mosquitoes [4] = test: Mosquito repellency on gauze or polyester film (olfactometer); type: in vivo; conditions: cotton gauze or polyester film, 0.3 mg/cm^2, 3 minutes after application
From the text: Olfactometer: A Fiensod and […] olfactometer, as modified by Bowen and Davis, measured the host-oriented flight response of female mosquitoes to volatile host emanations (Feinsod, F. M., and […]; An olfactometer for measuring host-seeking behavior of female Aedes aegypti (Diptera: Culicidae); J. Med. Entomol., 15: 282-285, 1979). The olfactometer (approximately 38 cm high) consisted of an upper and lower screened chamber with a closure between the chambers (FIG. 8). A fan placed above the upper chamber drew air through the apparatus at approximately 0.2 m/s. A temperature and humidity controlled chamber (5' wide by 6' long by 8' high) was constructed to house the test subject and the olfactometer. Rearing of Mosquitoes: A second environmental chamber, maintained at 27° C. and 80% humidity, was dedicated to the rearing of Aedes aegypti mosquitoes. […] Assays for Attraction of Mosquitoes to Human Subjects: A group of 30 volunteers, consisting of 14 females and 16 males and ranging in age from 24 to 68 years, was selected from the surrounding civilian population. Individuals were tested for their ability to attract Aedes aegypti mosquitoes contained in the olfactometer. Tests were conducted at a temperature of 27° C. and 50% relative humidity. […] A small fan was placed on top of the upper chamber to cause an air flow from the lower chamber to the upper chamber. A trial began when the closure between the upper and lower chamber was opened in the absence of a human host. […] This trial was repeated twice during a test session to obtain three replicates. Two additional test sessions, at time intervals of at least 1 week, were conducted to obtain at least 8-9 replicates for each of 24 subjects. Of the remaining 6 subjects, 3 were tested on two separate occasions for a total of 6 replicates per subject; 3 were tested on one occasion for a total of 3 replicates per subject. A total of 254 tests were conducted. Test compounds were dissolved in acetone or ethanol at a concentration of 150 mg/5 cc. Ethanol solutions of carboxylic acids were prepared just prior to use. Five hundred microliters of these solutions were applied to a 50 cm^2 circular area of a single layer of cotton gauze (Curity Curad gauze, Futuro Inc., Milford, Ohio) or nonwoven polyester film ([…], Inc.). The resultant dose was 0.3 mg/cm^2. […] The cup was attached to the bottom of the olfactometer (FIG. 8) so that air flowed through the stainless steel screen of the cup, through the treated gauze or film, and through the olfactometer. A volunteer's forearm was placed under the cup, so that air drawn into the cup and olfactometer was laden with human skin emanations. Tests were conducted as described in the preceding paragraph, “Assays for attraction of mosquitoes to human subjects”. Percent repellency was determined from the fraction of mosquitoes entering the lower chamber over a seven minute period. This assay is an approximate measure of the intrinsic repellency of a compound. Good repellency in this test is a necessary, but not sufficient, condition for good repellency on skin. Mosquito repellents must produce a vapor over the skin surface to confuse the host seeking behavior of the insect. However, volatilization must not be so great that the repellent action rapidly dissipates. Since volatilization from the skin will be different from an inanimate surface, skin tests are necessary to confirm that a compound will be a practical repellent.

Aedes aegypti mosquitoes [5] = test: Mosquito repellency on skin (olfactometer, human forearm); type: in vivo; conditions: for Percent Repellency 0 h: 0.3 mg/cm^2, 0 h after application; for Percent Repellency 2 h: 0.3 mg/cm^2, 2 h after application
From the text: Olfactometer: A Fiensod and Spielman olfactometer, as modified by Bowen and Davis, measured the host-oriented flight response of female mosquitoes to volatile host emanations (Feinsod, F. M., and A. Spielman; An olfactometer for measuring host-seeking behavior of female Aedes aegypti (Diptera: Culicidae); J. Med. Entomol., 15: 282-285, 1979). The olfactometer (approximately 38 cm high) consisted of an upper and lower screened chamber with a closure between the chambers (FIG. 8). A fan placed above the upper chamber drew air through the apparatus at approximately 0.2 m/s. A temperature and humidity controlled chamber (5′ wide by 6′ long by 8′ high) was constructed to house the test subject and the olfactometer.
Rearing of Mosquitoes: A second environmental chamber, maintained at 27° C. and 80% humidity, was dedicated to the rearing of Aedes aegypti mosquitoes. Routine shipments of eggs (American Biological Supply, Gainesville, Fla.) were used to maintain a continuous supply of adult 5-10 day old mosquitoes.
Assays for Attraction of Mosquitoes to Human Subjects: A group of 30 volunteers, consisting of 14 females and 16 males and ranging in age from 24 to 68 years, was selected from the surrounding civilian population. Individuals were tested for their ability to attract Aedes aegypti mosquitoes contained in the olfactometer. Tests were conducted at a temperature of 27° C. and 50% relative humidity. For each trial 15 avid adult female Aedes aegypti mosquitoes (5-10 days post-emergence) were placed in the upper chamber. A small fan was placed on top of the upper chamber to cause an air flow from the lower chamber to the upper chamber. A trial began when the closure between the upper and lower chamber was opened in the absence of a human host. The number of mosquitoes entering the lower chamber within a 3 minute period was recorded. The volunteer then placed his or her arm beneath the lower chamber and the number of mosquitoes flying from the upper chamber to the lower chamber was recorded for the time intervals 0-1, 1-3, 3-5 and 5-7 minutes. This trial was repeated twice during a test session to obtain three replicates. Two additional test sessions, at time intervals of at least 1 week, were conducted to obtain at least 8-9 replicates for each of 24 subjects. Of the remaining 6 subjects, 3 were tested on two separate occasions for a total of 6 replicates per subject; 3 were tested on one occasion for a total of 3 replicates per subject. A total of 254 tests were conducted.
Test compounds were dissolved in acetone or ethanol at a concentration of 300 mg/5 cc. Ethanol solutions of carboxylic acids were prepared just prior to use. Three hundred and fifty microliters of these solutions were applied to a 70 cm^2 rectangular area of the forearm. The resultant dose was 0.3 mg/cm^2. The repellent treated area was allowed to dry for 5 minutes prior to test. The treated skin area was placed under the olfactometer and tests were conducted as described in the preceding paragraph, “Assays for attraction of mosquitoes to human subjects”. Percent repellency was determined from the fraction of mosquitoes entering the lower chamber over a seven minute period.
A commercial formulation of DEET (Skintastic, S. C. Johnson, Racine,) was applied to a 100 cm^2 area on the forearm of 1 volunteer (subject 02) to give a dose of 0.3 mg/cm^2 of DEET. A formulation of C8C9C10 (5% octanoic, 5% nonanoic, 5% decanoic in Dow Corning 345 volatile silicone fluid) was applied to a 100 cm^2 on the subject's other arm to give a dose of 0.3 mg/cm^2 total acids. Application sites were placed under the olfactometer at 1, 2 and 4 hours after treatment. Untreated areas on each arm were placed under the olfactometer at the completion of the treated area tests to check the avidity of the mosquitoes. Tests were done on four separate test days. […]

[6] = system: yellow fever mosquito (Aedes aegypti (L.)); conditions: human skin, approximately 2 mg/cm^2, time until two bites; DEET from Gilbert 1957; cited from earlier work
[7] = at 125° C., literature values; cited from earlier work
Aedes aegypti mosquitoes [8] = test: Mosquito repellency on skin (olfactometer, human forearm); type: in vivo
Ionization at skin pH = type: physicochemical; conditions: pH = pKa of the acids
From the text: Naturally occurring fatty acids contain both polar (carboxylic acid group) and non-polar (alkyl chain) regions in their structure and the lower molecular weight homologs are sufficiently volatile to evaporate from the skin surface. Individually, these compounds have repellent activity. A number of these compounds were applied to non-absorptive gauze mounted between the human forearm and the olfactometer containing mosquitoes. These tests were done immediately after application to minimize losses due to evaporation (described fully in “Example 2” below). Because skin absorption and evaporative loss is minimized, this test can be regarded as a measure of the potency of the compounds. Homologs containing 8 to 11 carbon atoms had similar potency (percent repellency), which was greater than that of DEET (FIG. 3). Six carbon homologs and twelve carbon homologs had potency equal to or less than DEET. […] Percent repellency dropped dramatically with increasing numbers of carbon atoms in the molecule (FIG. 4). […] The nonanoic acid was preferably saturated. 4MOCTAN had the best overall performance at the zero and two hour time points. It should be noted for FIGS. 4 and 5 that the carboxylic acids exist on the skin at a pH which ionizes 50% of the molecules (pH=pKa of the acids). Since the ionized species are not volatile, the actual available dose is approximately 50% of that for DEET.

Thermal stability = type: physicochemical
Vapor pressure = type: physicochemical; conditions: at 125° C., estimated or extrapolated from literature values
[9] = on skin, listed as N,N-Diethyl-m-toluamide

Compound: CCN(CC)C(=O)c1cccc(C)c1 [DEET, N,N,-diethyl-m-toluamide, reference compound]
hours of protection (mosquitoes [1]): 5 to 7 h | protects against mosquitoes for (mosquitoes [2]): 5 to 6 h | Protection Time (Aedes aegypti): 8 ± 2 h | Protection time against Aedes aegypti mosquitoes (Aedes aegypti mosquitoes [3]): 5.5 h | Percent Repellency (Aedes aegypti mosquitoes [4]): 74% | Percent Repellency (Aedes aegypti mosquitoes [4]; listed as N,N-Diethyl-m-toluamide): 74 ± 12% | Percent Repellency 0 h (Aedes aegypti mosquitoes [5]; on skin): 95% and 95 ± 6% | Percent Repellency 0 h (Aedes aegypti mosquitoes [5]; [9]): 95 ± 6 (3) % | Percent Repellency 2 h (Aedes aegypti mosquitoes [5]; on skin): 89% and 89 ± 10% | Percent Repellency 2 h (Aedes aegypti mosquitoes [5]; [9]): 89 ± 10 (3) % | Percent Repellency 4 h (Aedes aegypti mosquitoes [5]; on skin, 0.3 mg/cm^2, 4 h after application): 83 ± 9% | Protection time against yellow fever mosquitoes [6]: 363 min^b

Compound: CCCCCC(=O)O [Hexanoic acid]
Vol. (vapor pressure) [7]: 39.6 mm Hg

fraction ionized at skin pH (Ionization at skin pH): about 50% | Thermal stability (Thermal stability): thermally unstable | Vol. (vapor pressure), (est) (Vapor pressure): 6 (est) mm Hg
Compound: CCCCC(C)CCC(=O)O (centres unmarked) [4-Methyloctanoic acid]
repellency over a 4 hour period compared to DEET (Aedes aegypti mosquitoes [8]; 0.6 mg/cm^2 versus 0.3 mg/cm^2 DEET, FIG. 6): nearly equal to that of DEET | Percent Repellency 2 h (Aedes aegypti mosquitoes [8]; on skin, 0.6 mg/cm^2, 2 h after application): 79 ± 21 (2) % | Percent Repellency 4 h (Aedes aegypti mosquitoes [8]; on skin, 0.6 mg/cm^2, 4 h after application): 67 ± 9% | pest or weed control at 0.3 mg/cm2 (Aedes aegypti mosquitoes [4]; Aedes aegypti, 0.05 h, read-out: Percent Repellency): 88 ± 18% | repellency immediately after application to skin, compared to DEET (Aedes aegypti mosquitoes [5]; FIG. 4): comparable to DEET | repellency two hours after skin application, ranking (Aedes aegypti mosquitoes [5]; FIG. 5): highest repellency | Percent Repellency 2 h (Aedes aegypti mosquitoes [5]; on skin): 66 (1) %

Reference: patent US6953814B2, “Natural insect repellant” (Stratacor, Inc., priority 1997, dated 2005)
